Reference: PMC11014391 (2024)
Blank lines part the entries; values can stand above or below the molecule they belong to.

Columns and labels:
[1] = test system: SAM-I^AD (yitJ SAM-I aptamer domain) (RNA, riboswitch) GGGCGUUCUUAUCAAGAGAAGCAGAGGGACUGGCCCGACGAAGCUUCAGCAACCGGUGUAAUGGCGAUCAGCCAUGACCAAGGUGCUAAAUCCAGCAAGCUCGAACAGCUUGGAAGAUAAGAAGCCCCCAAAAAAAAAAAAAAAAAAAAAAAA; assay: ITC; settings: 150 mM NaCl, 2 mM MgCl2; 10 mM HEPES pH 7.4, 25 °C; 10 μM RNA
[2] = test system: SAM-I^1-156 (RNA, riboswitch) GGGAUAUCCGUUCUUAUCAAGAGAAGCAGAGGGACUGGCCCGACGAAGCUUCAGCAACCGGUGUAAUGGCGAUCAGCCAUGACCAAGGUGCUAAAUCCAGCAAGCUCGAACAGCUUGGAAGAUAAGAAGAGACAAAAUCACUGACAAAGUCUUCUUCUUCCCCCAAAAAAAAAAAAAAAAAAAAAAAA; assay: SPR kinetics; settings: 150 mM NaCl, MgCl2; HBS-N, 10 mM HEPES pH 7.4; apparent
[3] = test system: SAM-I^AD (yitJ SAM-I aptamer domain) (RNA, riboswitch) GGGCGUUCUUAUCAAGAGAAGCAGAGGGACUGGCCCGACGAAGCUUCAGCAACCGGUGUAAUGGCGAUCAGCCAUGACCAAGGUGCUAAAUCCAGCAAGCUCGAACAGCUUGGAAGAUAAGAAGCCCCCAAAAAAAAAAAAAAAAAAAAAAAA; assay: SPR kinetics; settings: 150 mM NaCl, MgCl2; HBS-N, 10 mM HEPES pH 7.4; apparent
[4] = test system: SAM-I^1-156 (RNA, riboswitch) GGGAUAUCCGUUCUUAUCAAGAGAAGCAGAGGGACUGGCCCGACGAAGCUUCAGCAACCGGUGUAAUGGCGAUCAGCCAUGACCAAGGUGCUAAAUCCAGCAAGCUCGAACAGCUUGGAAGAUAAGAAGAGACAAAAUCACUGACAAAGUCUUCUUCUUCCCCCAAAAAAAAAAAAAAAAAAAAAAAA; assay: native PAGE switching, no probe; settings: MgCl2; THEM buffer pH 7.5; 0.5 μM RNA; top band; bottom band 23 ± 9 μM
[5] = test system: SAM-I^1-156 (RNA, riboswitch) GGGAUAUCCGUUCUUAUCAAGAGAAGCAGAGGGACUGGCCCGACGAAGCUUCAGCAACCGGUGUAAUGGCGAUCAGCCAUGACCAAGGUGCUAAAUCCAGCAAGCUCGAACAGCUUGGAAGAUAAGAAGAGACAAAAUCACUGACAAAGUCUUCUUCUUCCCCCAAAAAAAAAAAAAAAAAAAAAAAA; assay: native PAGE switching with APO-FAM-SAM probe; settings: MgCl2; THEM buffer pH 7.5; APO-FAM-SAM DNA probe displaced
[6] = test system: SAM-I^1-156 (RNA, riboswitch) GGGAUAUCCGUUCUUAUCAAGAGAAGCAGAGGGACUGGCCCGACGAAGCUUCAGCAACCGGUGUAAUGGCGAUCAGCCAUGACCAAGGUGCUAAAUCCAGCAAGCUCGAACAGCUUGGAAGAUAAGAAGAGACAAAAUCACUGACAAAGUCUUCUUCUUCCCCCAAAAAAAAAAAAAAAAAAAAAAAA; assay: native PAGE switching with HOLO-FAM-SAM probe; settings: MgCl2; THEM buffer pH 7.5; HOLO-FAM-SAM DNA probe hybridizes
[7] = test system: SAM-I^1-156 (RNA, riboswitch) GGGAUAUCCGUUCUUAUCAAGAGAAGCAGAGGGACUGGCCCGACGAAGCUUCAGCAACCGGUGUAAUGGCGAUCAGCCAUGACCAAGGUGCUAAAUCCAGCAAGCUCGAACAGCUUGGAAGAUAAGAAGAGACAAAAUCACUGACAAAGUCUUCUUCUUCCCCCAAAAAAAAAAAAAAAAAAAAAAAA; assay: fluorescence anisotropy switching (FASST), APO probe; settings: 150 mM NaCl, 2 mM MgCl2; 10 mM HEPES pH 7.4, 37 °C; 75 nM RNA; 50 nM APO-FAM-SAM DNA probe displaced
[8] = test system: SAM-I riboswitch without spacer and poly(A) tail (RNA, riboswitch) GGGAUAUCCGUUCUUAUCAAGAGAAGCAGAGGGACUGGCCCGACGAAGCUUCAGCAACCGGUGUAAUGGCGAUCAGCCAUGACCAAGGUGCUAAAUCCAGCAAGCUCGAACAGCUUGGAAGAUAAGAAGAGACAAAAUCACUGACAAAGUCUUCUUCUU; assay: as above; settings: 150 mM NaCl, 2 mM MgCl2; 10 mM HEPES pH 7.4; APO-FAM-SAM DNA probe displaced
[9] = test system: SAM-I^1-156 (RNA, riboswitch) GGGAUAUCCGUUCUUAUCAAGAGAAGCAGAGGGACUGGCCCGACGAAGCUUCAGCAACCGGUGUAAUGGCGAUCAGCCAUGACCAAGGUGCUAAAUCCAGCAAGCUCGAACAGCUUGGAAGAUAAGAAGAGACAAAAUCACUGACAAAGUCUUCUUCUUCCCCCAAAAAAAAAAAAAAAAAAAAAAAA; assay: fluorescence anisotropy switching (FASST), HOLO probe; settings: 150 mM NaCl, 2 mM MgCl2; 10 mM HEPES pH 7.4, 37 °C; 350 nM RNA; 50 nM HOLO-FAM-SAM DNA probe hybridizes
[10] = test system: SAM-I riboswitch without spacer and poly(A) tail (RNA, riboswitch) GGGAUAUCCGUUCUUAUCAAGAGAAGCAGAGGGACUGGCCCGACGAAGCUUCAGCAACCGGUGUAAUGGCGAUCAGCCAUGACCAAGGUGCUAAAUCCAGCAAGCUCGAACAGCUUGGAAGAUAAGAAGAGACAAAAUCACUGACAAAGUCUUCUUCUU; assay: as above; settings: 150 mM NaCl, 2 mM MgCl2; 10 mM HEPES pH 7.4; HOLO-FAM-SAM DNA probe hybridizes
[11] = test system: FMN^1-212 (RNA, riboswitch) GGGAAAAAUAAAUAUUAAAAAUAAUCUUCGGGGCAGGGUGAAAUUCCCGACCGGUGGUAUAGUCCACGAAAGUAUUUGCUUUGAUUUGGUGAAAUUCCAAAACCGACAGUAGAGUCUGGAUGAGAGAAGAAAAGAAAUUUAAGUUUUUUAACUUGUUUUCUACAUUUUAGUAAUCUUACCCGAAUUCUAUAAUUCGGUUUUUUUAUUUUAACUGGCCCCCAAAAAAAAAAAAAAAAAAAAAAAA; assay: SPR steady state; settings: 150 mM NaCl, 5 mM MgCl2; HBS-N, 10 mM HEPES pH 7.4; apparent
[12] = test system: FMN^AD (FMN aptamer domain) (RNA, riboswitch) GGGAUCUUCGGGGCAGGGUGAAAUUCCCGACCGGUGGUAUAGUCCACGAAAGUAUUUGCUUUGAUUUGGUGAAAUUCCAAAACCGACAGUAGAGUCUGGAUGAGAGAAGACCCCCAAAAAAAAAAAAAAAAAAAAAAAA; assay: SPR steady state; settings: 150 mM NaCl, MgCl2; HBS-N, 10 mM HEPES pH 7.4
[13] = test system: FMN^1-212 (RNA, riboswitch) GGGAAAAAUAAAUAUUAAAAAUAAUCUUCGGGGCAGGGUGAAAUUCCCGACCGGUGGUAUAGUCCACGAAAGUAUUUGCUUUGAUUUGGUGAAAUUCCAAAACCGACAGUAGAGUCUGGAUGAGAGAAGAAAAGAAAUUUAAGUUUUUUAACUUGUUUUCUACAUUUUAGUAAUCUUACCCGAAUUCUAUAAUUCGGUUUUUUUAUUUUAACUGGCCCCCAAAAAAAAAAAAAAAAAAAAAAAA; assay: fluorescence anisotropy switching (FASST), APO probe; settings: 150 mM NaCl, 5 mM MgCl2, 350 nM RNA, 5 nM APO-FAM-FMN DNA probe displaced
[14] = test system: FMN^1-212 (RNA, riboswitch) GGGAAAAAUAAAUAUUAAAAAUAAUCUUCGGGGCAGGGUGAAAUUCCCGACCGGUGGUAUAGUCCACGAAAGUAUUUGCUUUGAUUUGGUGAAAUUCCAAAACCGACAGUAGAGUCUGGAUGAGAGAAGAAAAGAAAUUUAAGUUUUUUAACUUGUUUUCUACAUUUUAGUAAUCUUACCCGAAUUCUAUAAUUCGGUUUUUUUAUUUUAACUGGCCCCCAAAAAAAAAAAAAAAAAAAAAAAA; assay: SPR; settings: 150 mM NaCl, 5 mM MgCl2; HBS-N, 10 mM HEPES pH 7.4; apparent; Table 2 prints 150 ± 180 nM
[15] = test system: FMN^AD (FMN aptamer domain) (RNA, riboswitch) GGGAUCUUCGGGGCAGGGUGAAAUUCCCGACCGGUGGUAUAGUCCACGAAAGUAUUUGCUUUGAUUUGGUGAAAUUCCAAAACCGACAGUAGAGUCUGGAUGAGAGAAGACCCCCAAAAAAAAAAAAAAAAAAAAAAAA; assay: SPR kinetics; settings: 150 mM NaCl, MgCl2; HBS-N, 10 mM HEPES pH 7.4; apparent
[16] = test system: SAM-I^1-156 (RNA, riboswitch) GGGAUAUCCGUUCUUAUCAAGAGAAGCAGAGGGACUGGCCCGACGAAGCUUCAGCAACCGGUGUAAUGGCGAUCAGCCAUGACCAAGGUGCUAAAUCCAGCAAGCUCGAACAGCUUGGAAGAUAAGAAGAGACAAAAUCACUGACAAAGUCUUCUUCUUCCCCCAAAAAAAAAAAAAAAAAAAAAAAA; assay: SPR steady state; settings: 150 mM NaCl, 2 mM MgCl2, HBS-N, 10 mM HEPES pH 7.4, apparent, no switching seen by FASST
[17] = test system: SAM-I^AD (yitJ SAM-I aptamer domain) (RNA, riboswitch) GGGCGUUCUUAUCAAGAGAAGCAGAGGGACUGGCCCGACGAAGCUUCAGCAACCGGUGUAAUGGCGAUCAGCCAUGACCAAGGUGCUAAAUCCAGCAAGCUCGAACAGCUUGGAAGAUAAGAAGCCCCCAAAAAAAAAAAAAAAAAAAAAAAA; assay: SPR steady state; settings: 150 mM NaCl, MgCl2; HBS-N, 10 mM HEPES pH 7.4

SMILES: Cc1cc2nc3c(=O)[nH]c(=O)nc-3n(C[C@H](O)[C@H](O)[C@H](O)CO)c2cc1C
KD [11]: 32 ± 11 µM
KD [12]: 30 ± 18 µM
S50FASST ([13]; 10 mM HEPES pH 7.4, overnight): 0.7 ± 0.3 µM

SMILES: Cc1cc2nc3c(=O)[nH]c(=O)nc-3n(C[C@H](O)[C@H](O)[C@H](O)CO)c2cc1N(C)C
KD [11]: 4.9 ± 0.2 µM
KD [12]: 2 ± 1 µM
S50FASST ([13]; 10 mM HEPES pH 7.4, overnight): 24 ± 20 µM

SMILES: Cc1cc2nc3c(=O)[nH]c(=O)nc-3n(C[C@H](O)[C@H](O)[C@H](O)COP(=O)(O)O)c2cc1C
KD [14]: 0.095 ± 0.05 µM
KD [15]: 0.16 ± 0.012 µM
S50FASST ([13]; 10 mM HEPES pH 7.4, 37 °C): 0.29 ± 0.06 µM

Second part, the molecule after the results:

KD [1]: 0.128 ± 0.027 µM
KD [2]: 0.0101 ± 0.0004 µM
KD [3]: 0.004 ± 0.002 µM
S50 NP [4]: 6 ± 2 µM
S50 NP [5]: 46 ± 44 µM
S50 NP [6]: 1.03 ± 0.08 µM
S50FASST [7]: 19 ± 12 µM
S50FASST [8]: 8 ± 3 µM
S50FASST [9]: 1.7 ± 0.4 µM
S50FASST [10]: 0.19 ± 0.08 µM
SMILES: C[S+](CC[C@H](N)C(=O)O)C[C@H]1O[C@@H](n2cnc3c(N)ncnc32)[C@H](O)[C@@H]1O (some centres unmarked)

KD [16]: 46 ± 27 µM
KD [17]: 195 ± 22 µM
SMILES: Nc1ncnc2c1ncn2[C@@H]1O[C@H](CSCC[C@H](N)C(=O)O)[C@@H](O)[C@H]1O

KD ([16]; error exceeds value): 2000 ± 3000 µM
KD [17]: 129 ± 14 µM
SMILES: Nc1ncnc2c1ncn2[C@@H]1O[C@H](C[C@@H](N)CC[C@H](N)C(=O)O)[C@@H](O)[C@H]1O
